Assay results as given in ChEMBL document CHEMBL1153391 (J Med Chem, 2009).

Tests used:
Procathepsin L = Procathepsin L (Homo sapiens, UniProt P07711); assay: Inhibition of cathepsin L
Cathepsin B = Cathepsin B (Homo sapiens, UniProt P07858); assay: Inhibition of cathepsin B
Plasmodium falciparum = assay: Antiplasmodial activity against Plasmodium falciparum FCBR; format: functional, organism-based
[1] = Inhibition of Plasmodium falciparum falcipain-2
[2] = Apparent permeability from basolateral to apical side of human Caco-2 cells
[3] = Apparent permeability from apical to basolateral side of human Caco-2 cells
[4] = Apparent permeability across human Caco-2 cells; format: ADME, cell-based
[5] = Cytotoxicity against mouse DC
[6] = Cytotoxicity against mouse J774.1 cells; format: cell-based
[7] = Cytotoxicity against human HEK293T cells; format: cell-based; details: HEK-293T

Chain of Procathepsin L (P07711 whole entry): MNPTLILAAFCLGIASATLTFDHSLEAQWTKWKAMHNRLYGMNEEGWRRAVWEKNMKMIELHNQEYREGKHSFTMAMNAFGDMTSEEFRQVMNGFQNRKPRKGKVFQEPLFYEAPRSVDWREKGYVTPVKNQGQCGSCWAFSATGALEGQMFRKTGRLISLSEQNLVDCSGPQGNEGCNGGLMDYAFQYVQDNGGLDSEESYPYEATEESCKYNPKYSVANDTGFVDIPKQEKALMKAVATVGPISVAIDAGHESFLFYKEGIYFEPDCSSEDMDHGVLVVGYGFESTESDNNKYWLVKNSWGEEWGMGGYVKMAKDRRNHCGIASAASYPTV

SMILES: CN(C)C(=O)/C=C/CNC(=O)CN1C(=O)[C@@H](COC(=O)Nc2ccc(Cl)cc2C(F)(F)F)N=C(c2ccccc2)c2ccccc21
- Ki (Procathepsin L): 1.9 µM
- Ki (Cathepsin B): 0.85 µM
- IC50 (Plasmodium falciparum): > 100 µM
- Ki [1]: 0.076 µM

SMILES: CC(=O)/C=C/CNC(=O)CN1C(=O)[C@@H](COC(=O)Nc2ccc(Cl)cc2C(F)(F)F)N=C(c2ccccc2)c2ccccc21
- Ki (Procathepsin L): 5.9 µM
- Ki (Cathepsin B): 6 µM
- IC50 (Plasmodium falciparum): 9.3 µM

SMILES: N#C/C=C/CNC(=O)CN1C(=O)[C@@H](COC(=O)Nc2ccc(Cl)cc2C(F)(F)F)N=C(c2ccccc2)c2ccccc21
- Ki (Procathepsin L): 3.2 µM
- Ki (Cathepsin B): 9.9 µM
- IC50 (Plasmodium falciparum): 36.1 µM
- Ki [1]: 0.19 µM

SMILES: CC(C)C[C@H](NC(=O)[C@H]1O[C@@H]1C(=O)O)C(=O)NCCCCN=C(N)N [E-64]
- Ki [1]: 0.29 µM

SMILES: COC(=O)/C=C/[C@H](CCc1ccccc1)NC(=O)CN1C(=O)[C@@H](COC(=O)Nc2ccc(Cl)cc2C(F)(F)F)N=C(c2ccccc2)c2ccccc21
- Ki (Procathepsin L): 2.7 µM
- Ki (Cathepsin B): 13.7 µM

SMILES: CN/C(=N/CCSCc1nc[nH]c1C)NC#N [CIMETIDINE]
- Papp B→A [2]: 1.5 ×10⁻⁶ cm/s
- Papp A→B [3]: 0.56 ×10⁻⁶ cm/s

SMILES: CC[C@]1(O)C[C@@H]2CN(CCc3c([nH]c4ccccc34)[C@@](C(=O)OC)(c3cc4c(cc3OC)N(C)[C@H]3[C@@](O)(C(=O)OC)[C@H](OC(C)=O)[C@]5(CC)C=CCN6CC[C@]43[C@@H]65)C2)C1 [VINBLASTINE]
- Papp [4]: 0.51 ×10⁻⁶ cm/s

SMILES: CN(C)C(=O)/C=C/[C@H](CCc1ccccc1)NC(=O)CN1C(=O)[C@@H](COC(=O)Nc2ccc(Cl)cc2C(F)(F)F)N=C(c2ccccc2)c2ccccc21
- Ki (Procathepsin L): 7.4 µM
- Ki (Cathepsin B): 6.4 µM
- Ki [1]: 0.076 µM

SMILES: CC(=O)/C=C/[C@H](CCc1ccccc1)NC(=O)CN1C(=O)[C@@H](COC(=O)Nc2ccc(Cl)cc2C(F)(F)F)N=C(c2ccccc2)c2ccccc21
- Ki (Procathepsin L): 7.5 µM
- Ki (Cathepsin B): 8.4 µM

SMILES: COC(=O)/C=C/CNC(=O)CN1C(=O)[C@@H](COC(=O)Nc2ccc(Cl)cc2C(F)(F)F)N=C(c2ccccc2)c2ccccc21
- IC50 [5]: 30.4 µM
- Ki (Procathepsin L): 8.4 µM
- Ki (Cathepsin B): 7.3 µM
- IC50 [6]: 31.3 µM
- Papp [4]: 3.82 ×10⁻⁶ cm/s
- IC50 [7]: 31.2 µM
- IC50 (Plasmodium falciparum): 12 µM
- Ki [1]: 0.017 µM
